# Measurements as given in patent publication US20240316150A1, “METHOD FOR PREVENTION OR TREATMENT OF DISEASES CAUSED BY PATHOGEN-[…] PATTERN” (priority 2021, published 2024).
# Where two headings read alike, the source gives them in different places. Ends that are not written are not given here.
# Tests used:
# [1] = Sirius Red staining of liver, carbon tetrachloride plus LPS mice; type: in vivo, BALB/c mice; settings: LPS 0.3 mg/kg i.p. for 2 weeks on carbon tetrachloride injury
# Protocol: In another experiment, adult male BALB/c mice were injected intraperitoneally with escalated dosage of carbon tetrachloride (CC14 from 1.0 to 2.5 ml/kg body weight) for 2 weeks. And then some mice were given lipopolysaccharides injection (LPS at 0.3 mg/kg, i.p.) for an additional 2 weeks. Under sustained injury conditions, some mice were supplemented with cholestyramine at 3% w/w in the chow for another 4 weeks. […] It is well known that hepatic injury induced activation of hepatic stellate cells (HSCs) mediate hepatic fibrosis.
# type-1 collagen, α-1 = assay: Type-1 collagen mRNA in liver, carbon tetrachloride plus LPS mice; type: in vivo, BALB/c mice; settings: LPS 0.3 mg/kg i.p. for 2 weeks on carbon tetrachloride injury
# Protocol: In one experiment, adult male BALB/c mice were intraperitoneally injected with escalated dosage of carbon tetrachloride (CC14, 1.0-2.5 ml/kg body weight) for 2 weeks. Then, some adult male BALB/c mice were given additional lipopolysaccharides (LPS, 0.3 mg/kg, i.p.) for 2 weeks. At such condition, some mice were supplemented with cholestyramine at 3%w/w in the chow for 4 weeks. […] In normal liver tissues, HSCs are quiescent, featured as storing vitamin A and producing type-4 collagen and other loose extracellular matrix (ECM). The high expression of collagen and the formation of fibrotic septa are common in various liver diseases. […] Endotoxemia is common in various hepatic fibrosis and cirrhosis, caused by alcohol, drugs, viruses (such as HBV and HCV), and immune system disorders. Therefore, the current disclosure can be applied for treatment of various forms of liver fibrosis.
# interleukin-1β (IL-1β) = assay: IL-1β mRNA in liver, carbon tetrachloride plus LPS mice; type: in vivo, BALB/c mice; settings: LPS 0.3 mg/kg i.p. for 2 weeks on carbon tetrachloride injury
# Protocol: In one experiment, adult male BALB/c mice were intraperitoneally injected with escalated levels of carbon tetrachloride (CC14, 1.0-2.5 ml/kg body weight) for 2 weeks. Then, some mice were given lipopolysaccharides (LPS, 0.3 mg/kg, i.p.) for an additional 2 weeks. Under the condition, some mice were supplemented with cholestyramine at 3 w/w. % in the chow for an additional 4 weeks. […] It is known that PAMPs activate many types of cells to produce interleukin-1 (IL-1), leading to fever, cytokine storms, and tissue damage. In this current disclosure, the cationic polymer in the oral administration can be used for sequestration of intestinal endotoxins, which consequently can alleviate drug-induced liver inflammation, a common mechanism of action for many types of liver injury and fibrogenesis.
# [2] = system: α-defensin-5 (DEFA5) produced by Paneth cells; assay: α-defensin-5 expression in ileum, carbon tetrachloride plus LPS mice; type: in vivo, BALB/c mice; settings: LPS 0.3 mg/kg i.p. for 2 weeks
# Protocol: In one experiment, adult male BALB/c mice were intraperitoneally injected with escalated dosage of carbon tetrachloride (CC14 from 1.0 to 2.5 ml/kg body weight) for 2 weeks. Then, some mice were given lipopolysaccharides (LPS, 0.3 mg/kg, i.p.) for an additional 2 weeks. […] Lower DEFA5 levels worsen gut microbiota into dysbiosis state, and conversely, increased level of endotoxin may contribute to liver inflammation, leading to tissue injury and fibrogenesis.
# Muc-2 = Muc-2 mRNA in ileum (RT-qPCR), carbon tetrachloride plus LPS mice; type: in vivo, BALB/c mice; settings: LPS 0.3 mg/kg i.p. for 2 weeks
# Protocol: In one experiment, adult male BALB/c mice were intraperitoneally injected with escalated dosage of carbon tetrachloride (CC14 from 1.0 to 2.5 ml/kg body weight) for an additional 2 weeks. Then, some mice were given lipopolysaccharides (LPS, 0.3 mg/kg, i.p.) for an additional 2 weeks.
# occludin = assay: Occludin mRNA in ileum (RT-qPCR), carbon tetrachloride plus LPS mice; type: in vivo, BALB/c mice; settings: LPS 0.3 mg/kg i.p. for 2 weeks
# Protocol: The tight junction proteins are essential components of intestinal epithelial cells and the innate immune system. In one experiment, adult male BALB/c mice were intraperitoneally injected with carbon tetrachloride (CC14, 1.0-2.5 ml/kg body weight) for 2 weeks. Then, some mice were given lipopolysaccharides (LPS, 0.3 mg/kg, i.p.) for an additional 2 weeks.
# monocytes [3] = type: cell-based; settings: Example 26, FIG. 22
# monocytes [4] = type: cell-based
# [5] = Sirius Red staining for liver fibrosis, carbon tetrachloride mice given DEFA5; type: in vivo, BALB/c mice; settings: oral 10 mg twice a week for 8 weeks, continued carbon tetrachloride
# Text: Paneth cells secret innate immune substances, such as antimicrobial peptides, to maintain intestinal homeostasis. The epithelial cells of the small intestine and the innate immune substances maintain the gastrointestinal barrier function, protect against the penetration of commensal and pathogenic bacteria, and safeguard intestinal epithelial cells. The antimicrobial peptides can suppress the small intestinal overgrowth of bacteria (SIBO), a common pathologic condition for many metabolic diseases. In one experiment, adult male BALB/c mice were given intraperitoneal injections of carbon tetrachloride for 4 weeks. While continuing administration of carbon tetrachloride, some mice were orally given synthetic human α-defensin-5 (10 mg, twice a week) for an additional 8 weeks (shown in FIG. 26A). […] The mechanism of action by the DEFA5 as API can be explained in part by inhibiting PAMPs, thereby reducing liver inflammation and damage, which in turn reduces the transdifferentiation of HSC and lowers liver fibrosis score.
# [6] = Intestinal permeability by FITC levels in bloodstream, carbon tetrachloride mice; type: in vivo, BALB/c mice; settings: 10 mg twice a week for 8 weeks, continued carbon tetrachloride
# Protocol: In one experiment, adult male BALB/c mice were given intraperitoneal injections of carbon tetrachloride for 4 weeks; while continuing administration of carbon tetrachloride, some mice were given the synthetic human α-defensin-5 (DEFA5) (10 mg, twice a week) for 8 weeks. Finally, the mice were given fluorescein isothiocyanate (FITC). […] Vitamin D deficiency affects the expression of the defensins secreted by Paneth cells, resulting in small intestinal bacterial overgrowth (SIBO) and the translocation of PAMPs into the bloodstream, thereby causing chronic inflammation. Therefore, the defensins, as a therapeutic API, can treat various gastrointestinal disease and alleviate drug-induced liver fibrosis.
# [7] = Bloodstream endotoxin (LAL test), carbon tetrachloride mice given DEFA5; type: in vivo, BALB/c mice; settings: 10 mg twice a week for 8 weeks, continued carbon tetrachloride
# Protocol: In one experiment, adult male BALB/c mice were given intraperitoneal injections of carbon tetrachloride for 4 weeks. While continuing administration of carbon tetrachloride, some mice were given the synthetic human α-defensin-5 (DEFA5) (10 mg, twice a week) for 8 weeks.
# gut microbiota = assay: Distribution of bacterial microbiota in feces, carbon tetrachloride mice given DEFA5; type: in vivo, BALB/c mice; settings: 10 mg twice a week for 8 weeks
# Protocol: In one experiment, adult male BALB/c mice were given intraperitoneal injections of carbon tetrachloride for 4 weeks; while continuing administration of carbon tetrachloride, some mice were given the synthetic human α-defensin-5 (DEFA5) (10 mg, twice a week) for 8 weeks.
Substance,"drug-induced cirrhosis, fibrotic histological analysis (Sirius Red) [1]","drug-induced cirrhosis, type-I collagen mRNA (type-1 collagen, α-1)","drug-induced hepatic inflammation, mRNA expression of IL-1B in the liver (interleukin-1β (IL-1β))",expression levels of α-defensin-5 (DEFA5) in ileum tissue [2],mRNA expression of Muc-2 by Goblet cells in ileum tissue (Muc-2),mRNA expression of occludin gene in ileum tissues (occludin),increase of mRNA expression of IL-1B (monocytes [3]),"increase of mRNA expression of TNF-α (monocytes [4]; Example 25, FIG. 21)","increase of mRNA expression of TNF-α (monocytes [4]; Example 27, FIG. 23)",liver fibrosis (Sirius Red) [5],intestinal permeability (FITC levels in bloodstream) [6],endotoxin translocation into the bloodstream [7],balance of intestinal bacterial microbiota (gut microbiota; continued carbon tetrachloride),abundance of Bacteroidetes (gut microbiota; feces),abundance of Firmicutes (gut microbiota; feces),abundance of gamma-Proteobacteria (gut microbiota; feces)
lipopolysaccharides [LPS],exacerbate the drug-induced cirrhosis,exacerbates the drug-induced cirrhosis,exacerbates the drug-induced hepatic inflammation,suppressed the expression levels of α-defensin-5 (DEFA5),reduced the mRNA expression of Muc-2,suppressed the mRNA expression of occludin gene,about 9 times,about 8 times,about 10 times,,,,,,,
"α-defensin-5 (ATCYCRHGRCATRESLSGVCEISGRLYRLCC; not fully specified (bridges); also: three disulfide bonds) [DEFA5, ATCYCRHGRCATRESLSGVCEISGRLYRLCCR, three disulfide bonds; antimicrobial peptide of Paneth cells]",,,,,,,,,,reduced liver fibrosis caused by liver injury,reduce intestinal permeability,reduced endotoxin translocation into the bloodstream,balanced the intestinal bacterial microbiota,increasing the abundance,reducing the abundance,reducing the abundance
